What follows are compounds tested against human Gal-3 (hGal-3) (Homo sapiens (Human), UniProt P17931) (assay: competitive binding assay: binding of biotinylated hGal-3 to microplate-adsorbed asialofetuin (ASF), spectrophotometric). Conditions: Activity on hGal-3; mean values of several measurements.
human Gal-3 (hGal-3), sequence (P17931 whole entry): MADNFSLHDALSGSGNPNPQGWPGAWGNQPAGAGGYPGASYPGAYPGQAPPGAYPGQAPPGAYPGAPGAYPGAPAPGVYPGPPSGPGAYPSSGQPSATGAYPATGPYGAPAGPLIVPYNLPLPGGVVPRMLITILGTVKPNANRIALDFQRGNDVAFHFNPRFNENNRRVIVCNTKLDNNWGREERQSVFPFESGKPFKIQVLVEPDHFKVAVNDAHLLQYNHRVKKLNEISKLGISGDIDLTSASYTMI
Summary of the method: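 Compounds in DMSO dilution series competed with 300-1000 ng/mL biotinylated hGal-3 for asialofetuin adsorbed on the plate (3 h, 4° C). Streptavidin-peroxidase at 80 ng/mL (1 h, 4° C) with ABTS gave a spectrophotometric read-out, and IC50 was reported as the mean of repeat runs.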
Compound `CO[C@@H]1[C@@H](n2cc(-c3cc(F)c(F)c(Cl)c3)nn2)[C@@H](O)[C@@H](CO)O[C@H]1C(=O)N(c1cc(Cl)cc(C#N)c1)[C@@H]1CCC[C@H]1O` [Example 1.7.4R, (2R,3R,4S,5R,6R)-4-(4-(3-chloro-4,5-difluorophenyl)-1H-1,2,3-triazol-1-yl)-N-(3-chloro-5-cyanophenyl)-5-hydroxy-N-((1R,2R)-2-hydroxycyclopentyl)-6-(hydroxymethyl)-3-methoxytetrahydro-2H-pyran-2-carboxamide] has an IC50 of 103 nM.
`CO[C@@H]1[C@@H](n2cc(-c3ccc(Br)c(F)c3F)nn2)[C@@H](O)[C@@H](CO)O[C@H]1C(=O)N(c1cc(Cl)cc(Cl)c1)[C@H]1CCC[C@@H]1O` [Example 1.12.2, (2R,3R,4S,5R,6R)-4-(4-(4-bromo-2,3-difluorophenyl)-1H-1,2,3-triazol-1-yl)-N-(3,5-dichlorophenyl)-5-hydroxy-N-((1S,2S)-2-hydroxycyclopentyl)-6-(hydroxymethyl)-3-methoxytetrahydro-2H-pyran-2-carboxamide] showed an IC50 of 23.7 nM.
For `CO[C@@H]1[C@@H](n2cc(-c3cc(F)cc(Br)c3)nn2)[C@@H](O)[C@@H](CO)O[C@H]1C(=O)N(c1cc(Cl)cc(C#N)c1)[C@@H]1CCC[C@H]1O` [Example 1.10.4R, (2R,3R,4S,5R,6R)-4-(4-(3-bromo-5-fluorophenyl)-1H-1,2,3-triazol-1-yl)-N-(3-chloro-5-cyanophenyl)-5-hydroxy-N-((1R,2R)-2-hydroxycyclopentyl)-6-(hydroxymethyl)-3-methoxytetrahydro-2H-pyran-2-carboxamide], the IC50 was 699 nM.
In the case of `CO[C@@H]1[C@@H](n2cc(-c3cc(F)c(Br)c(F)c3)nn2)[C@@H](O)[C@@H](CO)O[C@H]1C(=O)N(c1cc(Cl)cc(C#N)c1)[C@@H]1CCC[C@H]1O` [Example 1.6.4R, (2R,3R,4S,5R,6R)-4-(4-(4-bromo-3,5-difluorophenyl)-1H-1,2,3-triazol-1-yl)-N-(3-chloro-5-cyanophenyl)-5-hydroxy-N-((1R,2R)-2-hydroxycyclopentyl)-6-(hydroxymethyl)-3-methoxytetrahydro-2H-pyran-2-carboxamide], the IC50 is reported as 214 nM.
For `CO[C@@H]1[C@@H](n2cc(-c3ccc(Br)c(F)c3F)nn2)[C@@H](O)[C@@H](CO)O[C@H]1C(=O)N(c1cc(Cl)cc(Cl)c1)[C@H]1CC[C@@H]1O` [Example 2.12.2, (2R,3R,4S,5R,6R)-4-(4-(4-bromo-2,3-difluorophenyl)-1H-1,2,3-triazol-1-yl)-N-(3,5-dichlorophenyl)-5-hydroxy-N-((1S,2S)-2-hydroxycyclobutyl)-6-(hydroxymethyl)-3-methoxytetrahydro-2H-pyran-2-carboxamide], the IC50 was 180 nM.
`CO[C@@H]1[C@@H](n2cc(-c3cc(F)c(F)c(F)c3)nn2)[C@@H](O)[C@@H](CO)O[C@H]1C(=O)N(c1cc(C)cc(Cl)c1)[C@H]1CC[C@@H]1O` [Example 2.1.3, (2R,3R,4S,5R,6R)-N-(3-chloro-5-methylphenyl)-5-hydroxy-N-((1S,2S)-2-hydroxycyclobutyl)-6-(hydroxymethyl)-3-methoxy-4-(4-(3,4,5-trifluorophenyl)-1H-1,2,3-triazol-1-yl)tetrahydro-2H-pyran-2-carboxamide] showed an IC50 of 118 nM.
For `CO[C@@H]1[C@@H](n2cc(-c3ccc(C)c(F)c3F)nn2)[C@@H](O)[C@@H](CO)O[C@H]1C(=O)N(c1cc(Cl)cc(Cl)c1)[C@H]1CCC[C@@H]1O` [Example 1.11.2, (2R,3R,4S,5R,6R)-N-(3,5-dichlorophenyl)-4-(4-(2,3-difluoro-4-methylphenyl)-1H-1,2,3-triazol-1-yl)-5-hydroxy-N-((1S,2S)-2-hydroxycyclopentyl)-6-(hydroxymethyl)-3-methoxytetrahydro-2H-pyran-2-carboxamide], the IC50 was 15.1 nM.
`CO[C@@H]1[C@@H](n2cc(-c3ccc(Cl)c(F)c3F)nn2)[C@@H](O)[C@@H](CO)O[C@H]1C(=O)N(c1cc(Cl)cc(C#N)c1)[C@@H]1CCC[C@H]1O` [Example 1.14.4R, (2R,3R,4S,5R,6R)-4-(4-(4-chloro-2,3-difluorophenyl)-1H-1,2,3-triazol-1-yl)-N-(3-chloro-5-cyanophenyl)-5-hydroxy-N-((1R,2R)-2-hydroxycyclopentyl)-6-(hydroxymethyl)-3-methoxytetrahydro-2H-pyran-2-carboxamide] gave an IC50 of 89.8 nM.
In the case of `COc1cc(-c2cn([C@H]3[C@@H](O)[C@@H](CO)O[C@@H](C(=O)N(c4cc(Br)cc(Br)c4)[C@@H]4CCC[C@H]4O)[C@@H]3OC)nn2)cc(F)c1F` [Example 1.3.11R, (2R,3R,4S,5R,6R)—N-(3,5-dibromophenyl)-4-(4-(3,4-difluoro-5-methoxyphenyl)-1H-1,2,3-triazol-1-yl)-5-hydroxy-N-((1R,2R)-2-hydroxycyclopentyl)-6-(hydroxymethyl)-3-methoxytetrahydro-2H-pyran-2-carboxamide], the IC50 is reported as 277 nM.
With “(2R,3R,4S,5R,6R)-N-(3,5-dichlorophenyl)-3,5-dihydroxy-N-((1S,2S)-2-hydroxycyclopentyl)-6-(hydroxymethyl)-4-(4-(3,4,5-trifluorophenyl)-1H-1,2,3-triazol-1-yl)tetrahydro-2H-pyran-2-carboxamide [Example 1H.1.2]” the IC50 was 29.4 nM.
`CO[C@@H]1[C@@H](n2cc(-c3ccc(Br)c(F)c3F)nn2)[C@@H](O)[C@@H](CO)O[C@H]1C(=O)N(c1cc(Cl)cc(C#N)c1)[C@H]1CC[C@@H]1O` [Example 2.12.4, (2R,3R,4S,5R,6R)-4-(4-(4-bromo-2,3-difluorophenyl)-1H-1,2,3-triazol-1-yl)-N-(3-chloro-5-cyanophenyl)-5-hydroxy-N-((1S,2S)-2-hydroxycyclobutyl)-6-(hydroxymethyl)-3-methoxytetrahydro-2H-pyran-2-carboxamide] was tested, and the IC50 was 45 nM.
`CO[C@@H]1[C@@H](n2cc(-c3ccc(C)c(F)c3F)nn2)[C@@H](O)[C@@H](CO)O[C@H]1C(=O)N(c1cc(Cl)cc(C#N)c1)[C@@H]1CCC[C@H]1O` [Example 1.11.4R, (2R,3R,4S,5R,6R)-N-(3-chloro-5-cyanophenyl)-4-(4-(2,3-difluoro-4-methylphenyl)-1H-1,2,3-triazol-1-yl)-5-hydroxy-N-((1R,2R)-2-hydroxycyclopentyl)-6-(hydroxymethyl)-3-methoxytetrahydro-2H-pyran-2-carboxamide] showed an IC50 of 53.9 nM.
`CO[C@@H]1[C@@H](n2cc(-c3cc(F)cc(Br)c3)nn2)[C@@H](O)[C@@H](CO)O[C@H]1C(=O)N(c1cc(F)cc(C#N)c1)[C@H]1CCC[C@@H]1O` [Example 1.10.7, (2R,3R,4S,5R,6R)-4-(4-(3-bromo-5-fluorophenyl)-1H-1,2,3-triazol-1-yl)-N-(3-cyano-5-fluorophenyl)-5-hydroxy-N-((1S,2S)-2-hydroxycyclopentyl)-6-(hydroxymethyl)-3-methoxytetrahydro-2H-pyran-2-carboxamide] was tested, and the IC50 was 146 nM.
`CO[C@@H]1[C@@H](n2cc(-c3cc(F)c(F)c(F)c3)nn2)[C@@H](O)[C@@H](CO)O[C@H]1C(=O)N(c1cccc(I)c1)[C@H]1CCC[C@@H]1O` [Example 1.1.6, (2R,3R,4S,5R,6R)-5-hydroxy-N-((1S,2S)-2-hydroxycyclopentyl)-6-(hydroxymethyl)-N-(3-iodophenyl)-3-methoxy-4-(4-(3,4,5-trifluorophenyl)-1H-1,2,3-triazol-1-yl)tetrahydro-2H-pyran-2-carboxamide] gave an IC50 of 42.4 nM.
`CO[C@@H]1[C@@H](n2cc(-c3cc(F)c(F)c(F)c3)nn2)[C@@H](O)[C@@H](CO)O[C@H]1C(=O)N(c1cccc(Cl)c1)[C@@H]1CC[C@H]1O` [Example 2.1.1R, (2R,3R,4S,5R,6R)-N-(3-chlorophenyl)-5-hydroxy-N-((1R,2R)-2-hydroxycyclobutyl)-6-(hydroxymethyl)-3-methoxy-4-(4-(3,4,5-trifluorophenyl)-1H-1,2,3-triazol-1-yl)tetrahydro-2H-pyran-2-carboxamide] gave an IC50 of 4400 nM.
With `CO[C@@H]1[C@@H](n2cc(-c3cc(F)c(F)c(F)c3)nn2)[C@@H](O)[C@@H](CO)O[C@H]1C(=O)N(c1cc(Br)cc(C#N)c1)[C@H]1CCC[C@@H]1O` [Example 1.1.5, (2R,3R,4S,5R,6R)-N-(3-bromo-5-cyanophenyl)-5-hydroxy-N-((1S,2S)-2-hydroxycyclopentyl)-6-(hydroxymethyl)-3-methoxy-4-(4-(3,4,5-trifluorophenyl)-1H-1,2,3-triazol-1-yl)tetrahydro-2H-pyran-2-carboxamide] the IC50 was 23 nM.
In the case of `CO[C@@H]1[C@@H](n2cc(-c3cc(F)c(Cl)c(F)c3)nn2)[C@@H](O)[C@@H](CO)O[C@H]1C(=O)N(c1cc(Cl)cc(C#N)c1)[C@H]1CC[C@@H]1O` [Example 2.5.4, (2R,3R,4S,5R,6R)-4-(4-(4-chloro-3,5-difluorophenyl)-1H-1,2,3-triazol-1-yl)-N-(3-chloro-5-cyanophenyl)-5-hydroxy-N-((1S,2S)-2-hydroxycyclobutyl)-6-(hydroxymethyl)-3-methoxytetrahydro-2H-pyran-2-carboxamide], the IC50 is reported as 71.4 nM.
With `CO[C@@H]1[C@@H](n2cc(-c3ccc(Br)c(F)c3F)nn2)[C@@H](O)[C@@H](CO)O[C@H]1C(=O)N(c1cc(F)cc(C#N)c1)[C@H]1CCC[C@@H]1O` [Example 1.12.7, (2R,3R,4S,5R,6R)-4-(4-(4-bromo-2,3-difluorophenyl)-1H-1,2,3-triazol-1-yl)-N-(3-cyano-5-fluorophenyl)-5-hydroxy-N-((1S,2S)-2-hydroxycyclopentyl)-6-(hydroxymethyl)-3-methoxytetrahydro-2H-pyran-2-carboxamide] the IC50 was 21.2 nM.
For `CO[C@@H]1[C@@H](n2cc(-c3cc(F)c(F)c(F)c3)nn2)[C@@H](O)[C@@H](CO)O[C@H]1C(=O)N(c1cccc(Br)c1)[C@@H]1CCC[C@H]1O` [Example 1.1.10R, (2R,3R,4S,5R,6R)-N-(3-bromophenyl)-5-hydroxy-N-((1R,2R)-2-hydroxycyclopentyl)-6-(hydroxymethyl)-3-methoxy-4-(4-(3,4,5-trifluorophenyl)-1H-1,2,3-triazol-1-yl)tetrahydro-2H-pyran-2-carboxamide], the IC50 was 376 nM.

Source: patent US20230348442A1, “GALECTIN-3 INHIBITING 2-HYDROXYCYCLOALKANE-1-CARBAMOYL DERIVATIVES” (Idorsia Pharmaceuticals Ltd, priority 2020, published 2023)
